Laboratory results from patent US20060009805A1, “Neural stimulation device employing renewable chemical stimulation” (priority 2004, published 2006).

Key:
[1] = cited from earlier work
[2] = system: rabbit retinal ganglion cells; assay: Single cell recordings from axons of retinal ganglion cells stimulated by focal ejection of K+ (KCl) from a micropipette; assay type: cell-based
Experimental: Single cell recordings were made from the axons of rabbit retinal ganglion cells in vitro. Data was recorded and analyzed using Spike2 (Cambridge Electronic Design). The ganglion cells were stimulated over the optical receptive field with a multibarrel micropipette (7-barrel, FHC, Inc.) which contained various concentrations of KCl (0-30 mM in an osmotically balanced NaCl solution (˜300 mOsm). The micropipette solutions were ejected by using a mulitchannel pressure ejector (PM8000, MDI Systems). All solutions contained Azure B (0.5 mg/ml) to enable visualization of the solution being ejected. Pulse durations of 20-100 msecs were used.
Response is shown for a cell stimulated with a 20 msec pulse of 10 mM K^+, pressure of 40 p.s.i. and a volume of approximately 100 pL. […] A modest increase (10 mM) in K^+ concentration increases the spike count from 35 to 80 spikes. Further increases in concentration to 15 mM and 30 mM increases the spike rate to 240 and 272 spikes, respectively. […] The histograms are summed responses from 10 trials as indicated by the raster plot.
Data was collected from 5 cells and the total spike count was obtained from the PSTH. The spontaneous activity (control record) was subtracted, divided by the number of repetitions and the median is plotted. The error bars shown are the standard deviations normalized by the median.
The large secondary lobe in the potassium response may be due to the fluid flow pattern that may have stimulated adjacent cells. Overall receptive field size is […] for a light evoked response.

For `O=C(O)[C@H](O)[C@@H](O)[C@H](O)[C@H](O)CO` [Gluconic acid, gluconic acid], the pKa [1] is given as roughly 3.6.
For `[K+]` [K^+], the overall receptive field size, potassium evoked response ([2]; 30 mM [K+]) was 400 µm, the receptive field size, primary lobe, potassium evoked response ([2]; 30 mM [K+]) was 100 µm and the “increase in background K+ concentration sufficient to excite the firing of an action potential by retinal ganglion cells” value ([2]; rabbit retina, in vitro) was roughly 10 mM. The “spike count (PSTH, summed responses from 10 trials)” value ([2]; representative cell, 10 mM K+, count without K+ increase 35) was 80 spikes, the “spike count (PSTH, summed responses from 10 trials; given as spike rate)” value ([2]; representative cell, 15 mM K+) was 240 spikes and the “spike count (PSTH, summed responses from 10 trials; given as spike rate)” value ([2]; representative cell, 30 mM K+) was 272 spikes.
